“Also recorded” adds a separate entry of the source. Read-outs that look alike come from different tables or passages of the source.
Key:
Human hERG = Human hERG (Homo sapiens, UniProt Q12809); experiment: Human hERG inhibition
From the text: Methods are described in Supplementary Methods 5 and 6. Enzyme assay results are means ± SD in multiple assays. ADME results are averages of n = 2 or 3 measurements in individual assays.

[1] = Plasma protein binding, mouse plasma; format: in vitro ADME
Protocol: (§1) A HepG2 cytotoxicity assay was used to determine a cellular selectivity index. HepG2 cells were seeded into 96-well plates in EMEM medium. Compounds were assessed for their effect upon cellular viability (Supplementary Methods 5.1). Inhibition of CYP450 was determined using kits from BD Biosciences (Supplementary Methods 5.2). Metabolic stability was determined using mouse […] tested at a single concentration of 5 µM. Plasma protein binding was determined using mouse and human plasma at a single concentration of 10 µM (Supplementary Methods 5.4). All PK studies in mice were carried out by Pharmidex (Supplementary Methods 6.1).
Compounds were tested for protein binding using mouse and human plasma at a single concentration of 10 µM and measured by equilibrium dialysis between plasma and buffer. The amount of parent was determined on both sides of the membrane after incubating for 4 hours at 37 °C. The samples were crashed with acetonitrile and put through protein precipitation plates. The eluent was analysed by LC/MS or LC/MS/MS. Output was percentage bound.

[2] = system: bloodstream form of T. brucei strain Lister 427; experiment: T. b. brucei 427 growth inhibition assay (LILiT, Alamar Blue); format: cell-based; conditions: Trypanosoma brucei
Protocol: The ‘in vitro’ parasite killing assay used the BSF of the non-human pathogenic subspecies T. b. brucei, strain Lister 427, cultured in HMI-9 medium containing 10% foetal bovine serum. A second cell line, T. b. brucei GVR35-Luc2 which constitutively expresses firefly luciferase was grown in Modified HMI-9 plus 20% foetal calf serum supplemented with 20% Serum Plus (Sigma) and 0.15 μg mL^−1 puromycin. Both strains of trypanosomes were cultured in T-25 vented cap flasks at 37 °C and 5% CO2.
The ‘in vitro’ parasite killing assay used the bloodstream-form of the non-human pathogenic subspecies T. b. brucei, strain Lister 427 (a gift from Professor Keith Matthews) which was cultured in HMI-9 medium containing 10% fetal bovine serum (FBS). A second cell line, T. b. brucei GVR35-Luc2 which constitutively expresses firefly luciferase (5) was grown in Modified HMI-9 plus 20% fetal calf serum (FCS) supplemented with 20% Serum Plus (Sigma) and 0.15 μg/ml puromycin as described previously (5). Both strains of trypanosomes were cultured in T-25 vented cap flasks at 37 °C and 5% CO2.
Growth inhibition tests of bloodstream-form T. b. brucei Lister 427 were carried out using the LILiT (long incubation low inoculation test) method (6). The parasites were cultured in complete HMI-9 medium containing 10% FBS in 96-well plates (Greiner Inc.) with approximately 2500 trypanosomes per well. A 3-fold dilution series (in the range from 45 µM – 0.020 µM) of the inhibitor compounds were prepared in the plate; the maximal concentration of DMSO was 0.45%. After 72 hours of incubation at 37 °C and 5% CO2, 50 µl Alamar Blue (0.2% diluted with Dulbecco’s-phosphate buffered saline (D-PBS, Sigma) was added to each well and plates were incubated at 37 °C and 5% CO2 for 4 hours. Fluorescence was read on the BMG multiplate reader using an excitation wavelength of 530 nm and an emission wavelength of 590 nm.

T. b. brucei Lister 427 = experiment: Mouse model of stage 1 HAT; format: in vivo, T. b. brucei in female CD-1 mice
Protocol: T. b. brucei Lister 427 infection is cured by 1-day dosing. […] These parasites have a doubling time of ~6 h and infection with 1 × 10^5 parasites usually requires euthanasia of mice within 4–5 days of infection in the absence of drug treatment. Drug efficacy is determined by taking regular blood samples from infected mice and checking microscopically for parasitaemia. In this model of acute infection a single surviving parasite should proliferate to reach detectable levels in ~5 days and a 30-day period of no parasite detection is considered as cure.
For the mouse model of stage 1 HAT T. b. brucei Lister 427 parasites (1 × 10^5) were injected into a single donor female CD-1 mouse (University of Edinburgh; 6–8 weeks old) intraperitoneally in D-PBS containing 10 mM glucose. Parasites for subsequent stage 1 HAT infection were obtained from whole blood via cardiac puncture, under gaseous isoflurane anaesthesia. Parasites (1 × 10^3) harvested from the donor mouse were then injected into the peritoneum of female CD-1 mice (University of Edinburgh; 6–8 weeks old) in D-PBS containing 10 mM glucose. One day after infection, animals were either left untreated (n = 3) or dosed orally by gavage (n = 5) with CTCB compound in Cremophor EL: EtOH: D-PBS (30:10:60 v/v; Supplementary Methods 6.3).
T. b. brucei Lister 427 parasites (1 x 10^5) were injected into a single donor female CD-1 mouse (University of Edinburgh; 6-8 weeks old) intraperitoneally in D-PBS containing 10 mM glucose. Parasites for subsequent Stage 1 HAT infection were obtained from whole blood via cardiac puncture, under gaseous isoflurane anaesthesia as described above. Parasites (1 x 10^3) harvested from the donor mouse were then injected into the peritoneum of female CD-1 mice (University of Edinburgh; 6-8 weeks old) in D-PBS containing 10mM glucose. One day after infection, animals were either left untreated (n=3) or dosed orally by gavage (n=5) with CTCB compound in Cremophor EL: EtOH : D-PBS (30:10:60 v/v). The veterinary trypanocidal drug pentamidine isethionate (2.5 mg/kg for 4 consecutive days after infection) was administered intraperitoneally as control (n=3) for parasite elimination. Mice were monitored daily for parasitaemia day 1 post-infection onwards. Trypanosomes were quantified in blood samples from the tail vein by microscopy as previously described (12). Animals were sacrificed on the day that parasites were first detected in blood samples. (Supplementary Figure 11)

[3] = Mouse brain tissue binding; format: in vitro ADME; conditions: read-out: Mouse brain tissue binding fu (%)
[4] = Metabolic stability, human liver microsomes; format: in vitro ADME; conditions: read-out: HLM Clint
Protocol: as §1
(§2) Compounds were tested for their metabolic stability using mouse and human liver microsomes (MLM and HLM). The compounds were tested at a single concentration of 5 µM. The samples were crashed with acetonitrile and put through protein precipitation plates. The eluent was analysed by LC/MS or LC/MS/MS.

[5] = Metabolic stability, mouse liver microsomes; format: in vitro ADME; conditions: read-out: MLM Clint
Protocol: as §1, §2

[6] = 10 µM, equilibrium dialysis, read-out: Mouse plasma protein binding fu(%)
[7] = percentage bound, read-out: mouse plasma protein binding value (converted)
[8] = 72 h, Alamar Blue, read-out: EC50 (µM) in vitro parasite killing of bloodstream form T. brucei Lister 427 (Tbb EC50)
[9] = Glycerol 0.75 mM, read-out: EC50
[10] = three oral 50 mg kg^−1 doses 2 h apart daily over 2 days, n = 5
[11] = Glycerol 5.0 mM, read-out: EC50

Sequence of Human hERG (Q12809 whole entry): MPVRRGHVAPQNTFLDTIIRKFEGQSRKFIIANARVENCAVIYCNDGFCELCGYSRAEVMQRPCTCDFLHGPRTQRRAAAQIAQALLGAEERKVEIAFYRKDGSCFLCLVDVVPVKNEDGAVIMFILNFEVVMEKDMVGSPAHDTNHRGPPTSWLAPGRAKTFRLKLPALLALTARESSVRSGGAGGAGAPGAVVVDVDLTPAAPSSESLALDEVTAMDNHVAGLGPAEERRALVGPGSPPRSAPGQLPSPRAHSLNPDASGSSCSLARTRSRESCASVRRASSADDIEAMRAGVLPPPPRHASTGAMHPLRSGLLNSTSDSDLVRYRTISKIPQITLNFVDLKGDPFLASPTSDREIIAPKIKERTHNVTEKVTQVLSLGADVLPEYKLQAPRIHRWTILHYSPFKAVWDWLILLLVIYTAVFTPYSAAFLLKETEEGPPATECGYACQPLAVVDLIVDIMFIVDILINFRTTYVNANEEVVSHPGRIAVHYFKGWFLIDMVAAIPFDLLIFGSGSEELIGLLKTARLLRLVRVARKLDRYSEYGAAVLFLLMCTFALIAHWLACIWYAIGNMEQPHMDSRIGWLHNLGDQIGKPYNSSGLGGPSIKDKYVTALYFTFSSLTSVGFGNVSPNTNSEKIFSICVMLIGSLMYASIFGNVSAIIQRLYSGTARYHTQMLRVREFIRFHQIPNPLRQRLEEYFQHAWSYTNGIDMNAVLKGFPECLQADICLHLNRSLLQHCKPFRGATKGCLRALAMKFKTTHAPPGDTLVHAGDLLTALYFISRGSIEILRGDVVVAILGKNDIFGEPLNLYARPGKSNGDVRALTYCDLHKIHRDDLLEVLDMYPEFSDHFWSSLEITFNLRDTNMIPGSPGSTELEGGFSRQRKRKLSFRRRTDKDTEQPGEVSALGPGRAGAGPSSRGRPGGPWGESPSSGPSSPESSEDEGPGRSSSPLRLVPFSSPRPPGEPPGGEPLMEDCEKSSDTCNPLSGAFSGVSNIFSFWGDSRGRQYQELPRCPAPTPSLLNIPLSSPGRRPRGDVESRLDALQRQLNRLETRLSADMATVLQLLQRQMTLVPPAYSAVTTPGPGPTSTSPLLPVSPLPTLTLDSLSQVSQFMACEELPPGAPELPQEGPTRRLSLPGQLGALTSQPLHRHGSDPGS

| Structure (SMILES) | IC50 (Human hERG) [µM] | fraction unbound at 4 h, 10 µM [1, 6] | fraction unbound at 4 h, 10 µM [1, 7] | EC50 [2, 8] [µM] | EC50 ([2]; Glycerol 0 mM, read-out: EC50) [µM] | EC50 [2, 9] [µM] | EC50 ([2]; Glycerol […], read-out: EC50) [µM] | outcome of treatment (T. b. brucei Lister 427; [10]) | fraction unbound [3] | microsomal CLint at 5 µM [4] [µL/min/mg] | microsomal CLint at 5 µM [5] [µL/min/mg] | EC50 [2, 11] [µM] | delay of onset of parasitaemia (T. b. brucei Lister 427; single oral doses of 50 mg kg^−1 over four consecutive days) | outcome of treatment (T. b. brucei Lister 427; three oral doses of 100 mg kg^−1 2 h apart on a single day, n = 5) | infected mice with complete cure (T. b. brucei Lister 427; three oral doses of 100 mg kg^−1 at 2 h intervals on 1 day, cure = no parasitaemia for >30 days) | outcome of treatment (T. b. brucei Lister 427; two daily oral doses at 25 mg/kg delivered 4 hours apart, n=5) | EC50 ([2]; 72 h, read-out: EC50 (µM) in vitro parasite killing of bloodstream form T. brucei Lister 427 (Tbb EC50), 72 h, Alamar Blue) [µM] |
| --- | --- | --- | --- | --- | --- | --- | --- | --- | --- | --- | --- | --- | --- | --- | --- | --- | --- |
| CN(C)CCn1ccc2c(ccn2Cc2ccc(Cl)c(Br)c2)c1=O [CTCB-470, 1-[(3-Bromo-4-chlorophenyl)methyl]-5-[2-(dimethylamino)ethyl] pyrrolo[3,2-c]pyridin-4-one] | 1.69 | 0.06 | 0.058 | 0.31 ± 0.03 | 0.23 | 0.26 | 0.26 | either complete clearance or a significant increase in survival | 0.006 | 17 | 91 | – | – | – | – | – | – |
| CN(C)CCn1ccc2c(ccn2Cc2ccc(F)c(Br)c2)c1=O [CTCB-508, 1-[(3-Bromo-4-fluorophenyl)methyl]-5-[2-(dimethylamino)ethyl] pyrrolo[3,2-c]pyridin-4-one] | 4.75 | 0.18 | – | 0.3 ± 0.02 | – | 0.31 | 0.34 | either complete clearance or a significant increase in survival | 0.017 | < 8.6 | 56 | 0.44 | – | – | – | – | – |
| CN(C)CCn1ccc2c(ccn2Cc2ccc(Cl)c(Cl)c2)c1=O [CTCB-405, 1-[(3,4-Dichlorophenyl)methyl]-5-[2-(dimethylamino)ethyl] pyrrolo[3,2-c]pyridin-4-one] | 3.98 | 0.058 | 0.06 | 0.37 ± 0.04 | 0.27 | 0.33 | 0.32 | parasite clearance; also recorded: complete cure; also recorded: either complete clearance or a significant increase in survival | 0.008 | < 8.6 | 70 | 0.45 | up to 12 days | parasites are undetectable; also recorded: no recurrence of parasitaemia 30 days post infection | 5/5 | prolongs survival but does not improve efficacy | – |
| CNCCn1ccc2c(ccn2Cc2ccc(Cl)c(Cl)c2)c1=O [CTCB-435] | – | – | – | – | – | – | – | – | – | – | – | – | – | – | – | – | 0.25 ± 0.05 |

Reference: article PMC7887271, “Fast acting allosteric phosphofructokinase inhibitors block trypanosome glycolysis and cure acute African trypanosomiasis in mice” (Nature Communications, 2021)
